Experimental data as given in US11203591B2, “Substituted 6-azabenzimidazole compounds” (Gilead Sciences, Inc., priority 2018, dated 2021).
pIC50: −log10 of the molar value.

Target: human HPK1 (MAP4K1) (Homo sapiens (Human), UniProt Q92918)
Experiment: HPK1 IC50 Assay (TR-FRET peptide phosphorylation)
Assay type: biochemical
Conditions: 0.15 nM HPK1, 10 μM ATP, 1 μM STK S1 peptide substrate; geometric mean
In short: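 Pre-activated, dually phosphorylated baculovirus-expressed HPK1 kinase domain (0.15 nM) preincubated 15 min with compound, then reacted 3 h at 25° C with 10 μM ATP and 1 μM STK S1 peptide in BES pH 7.0 buffer. Phosphopeptide read by TR-FRET (665/620 nm); four-parameter fit, geometric-mean IC50.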

Sequence of human HPK1 (MAP4K1) (Q92918 17-274): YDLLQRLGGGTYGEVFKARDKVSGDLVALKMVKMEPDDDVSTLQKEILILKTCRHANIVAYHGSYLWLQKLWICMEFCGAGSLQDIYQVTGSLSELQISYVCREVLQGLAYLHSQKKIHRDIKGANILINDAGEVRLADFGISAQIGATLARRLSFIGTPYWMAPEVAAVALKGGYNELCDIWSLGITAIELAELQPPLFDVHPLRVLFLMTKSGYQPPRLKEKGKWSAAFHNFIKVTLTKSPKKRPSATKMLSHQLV

Compound	pIC50
CC(C)n1cnc2cc(-c3ccc4c(c3)N([C@H]3C[C@@](C)(N5CCCCC5)C3)C(=O)C4(C)C)nc(Nc3cc(C(=O)NC4(CF)CC4)c(Cl)c(F)c3F)c21 [Example 292, 2-chloro-5-((6-(3,3-dimethyl-1-((1s,3s)-3-methyl-3-(piperidin-1-yl)cyclobutyl)-2-oxoindolin-6-yl)-3-isopropyl-3H-imidazo[4,5-c]pyridin-4-yl)amino)-3,4-difluoro-N-(1-(fluoromethyl)cyclopropyl)benzamide]	10.15
CC(C)n1cnc2cc(-c3ccc4c(c3)N([C@H]3C[C@@](C)(N5CCCCC5)C3)C(=O)C4(C)C)nc(Nc3cc(C(=O)NC4(CF)CC4)c(Cl)cc3F)c21 [Example 293, 2-chloro-5-((6-(3,3-dimethyl-1-((1s,3s)-3-methyl-3-(piperidin-1-yl)cyclobutyl)-2-oxoindolin-6-yl)-3-isopropyl-3H-imidazo[4,5-c]pyridin-4-yl)amino)-4-fluoro-N-(1-(fluoromethyl)cyclopropyl)benzamide]	10.30
CC(C)n1cnc2cc(-c3ccc4c(c3)N([C@H]3C[C@@](C)(N5CCCCC5)C3)C(=O)C4(C)C)nc(Nc3cc(C(=O)NC4(C(F)F)CC4)c(Cl)cc3F)c21 [Example 294, 2-chloro-N-(1-(difluoromethyl)cyclopropyl)-5-((6-(3,3-dimethyl-1-((1s,3s)-3-methyl-3-(piperidin-1-yl)cyclobutyl)-2-oxoindolin-6-yl)-3-isopropyl-3H-imidazo[4,5-c]pyridin-4-yl)amino)-4-fluorobenzamide]	10.10
Cc1cc(F)c(Nc2nc(-c3ccc4c(c3)N([C@]3(C)C[C@H](N5CCCCC5)C3)C(=O)C4(C)C)cc3ncn(C(C)C)c23)cc1C(=O)NC1(C(F)F)CC1 [Example 295, N-(1-(difluoromethyl)cyclopropyl)-5-((6-(3,3-dimethyl-1-((1s,3s)-1-methyl-3-(piperidin-1-yl)cyclobutyl)-2-oxoindolin-6-yl)-3-isopropyl-3H-imidazo[4,5-c]pyridin-4-yl)amino)-4-fluoro-2-methylbenzamide]	10.00
CC(C)n1cnc2cc(-c3ccc4c(c3)N([C@]3(C)C[C@H](N5CCCCC5)C3)C(=O)C4(C)C)nc(Nc3cc(C(=O)NC4(C(F)F)CC4)c(Cl)c(F)c3F)c21 [Example 296, 2-Chloro-N-(1-(difluoromethyl)cyclopropyl)-5-((6-(3,3-dimethyl-1-((1s,3s)-1-methyl-3-(piperidin-1-yl)cyclobutyl)-2-oxoindolin-6-yl)-3-isopropyl-3H-imidazo[4,5-c]pyridin-4-yl)amino)-3,4-difluorobenzamide]	10.00
CC(C)n1cnc2cc(-c3cnc4c(c3)N([C@]3(C)C[C@H](N5CCCCC5)C3)C(=O)C4(C)C)nc(Nc3cc(C(=O)NC4(C(F)F)CC4)c(Cl)c(F)c3F)c21 [Example 297, 2-Chloro-N-(1-(difluoromethyl)cyclopropyl)-5-((6-(3,3-dimethyl-1-((1s,3s)-1-methyl-3-(piperidin-1-yl)cyclobutyl)-2-oxo-2,3-dihydro-1H-pyrrol[3,2-b]pyridin-6-yl)-3-isopropyl-3H-imidazo[4,5-c]pyridin-4-yl)amino)-3,4-difluorobenzamide]	9.70
N-(1-(difluoromethyl)cyclopropyl)-5-((6-(3,3-dimethyl-1-((1s,3s)-3-methyl-3-(piperidin-1-yl)cyclobutyl)-2-oxo-2,3-dihydro-1H-pyrrolo[3,2-b]pyridin-6-yl)-3-isopropyl-3H-imidazo[4,5-c]pyridin-4-yl)amino)-2,3,4-trifluorobenzamide [Example 280]	10.30
